Source: patent publication US11634396B2 (priority 2021, dated 2023)

How the values were obtained:
human dOR = human dOR (Homo sapiens (Human), UniProt P41143); test: cell-based; conditions: dOR cAMP Agonist Assay EC50, CHO Tag-lite human dOR stable cell line; forskolin
human mOR = human mOR (Homo sapiens (Human), UniProt P35372); test: cell-based
kOR (OPRK1) = kOR (OPRK1) (Homo sapiens (Human), UniProt P41145); test: KOR β-Arrestin antagonist assay (Tango OPRK1-bla U2OS cells); type: cell-based
Sequence of kOR (OPRK1) (P41145 whole entry): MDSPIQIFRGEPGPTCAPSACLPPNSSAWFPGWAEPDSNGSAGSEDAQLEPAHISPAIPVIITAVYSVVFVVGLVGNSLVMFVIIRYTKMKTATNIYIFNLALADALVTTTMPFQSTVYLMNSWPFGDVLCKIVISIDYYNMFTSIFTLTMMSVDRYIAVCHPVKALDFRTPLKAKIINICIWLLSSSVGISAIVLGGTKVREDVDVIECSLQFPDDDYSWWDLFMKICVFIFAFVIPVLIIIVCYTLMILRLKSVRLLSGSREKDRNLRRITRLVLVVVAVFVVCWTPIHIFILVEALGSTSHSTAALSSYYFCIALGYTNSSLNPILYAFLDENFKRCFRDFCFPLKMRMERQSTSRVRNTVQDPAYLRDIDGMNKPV
Description: KOR β-Arrestin Agonist and Antagonist assays were preformed using the Tango™ OPRK1-bla U2OS cells from Invitrogen and purchased from ThermoFisher, catalog number K1576.

Sequence of human mOR (P35372 whole entry): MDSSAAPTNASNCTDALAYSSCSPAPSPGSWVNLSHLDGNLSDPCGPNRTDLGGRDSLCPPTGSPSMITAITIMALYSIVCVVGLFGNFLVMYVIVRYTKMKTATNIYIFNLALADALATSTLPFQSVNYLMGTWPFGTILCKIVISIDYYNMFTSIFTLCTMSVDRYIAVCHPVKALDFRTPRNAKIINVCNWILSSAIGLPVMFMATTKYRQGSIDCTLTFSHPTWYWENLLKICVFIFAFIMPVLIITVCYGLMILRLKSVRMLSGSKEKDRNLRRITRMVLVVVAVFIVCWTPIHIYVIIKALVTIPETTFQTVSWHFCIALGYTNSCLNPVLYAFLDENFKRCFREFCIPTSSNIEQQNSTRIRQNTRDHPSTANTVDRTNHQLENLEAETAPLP
Sequence of human dOR (P41143 whole entry): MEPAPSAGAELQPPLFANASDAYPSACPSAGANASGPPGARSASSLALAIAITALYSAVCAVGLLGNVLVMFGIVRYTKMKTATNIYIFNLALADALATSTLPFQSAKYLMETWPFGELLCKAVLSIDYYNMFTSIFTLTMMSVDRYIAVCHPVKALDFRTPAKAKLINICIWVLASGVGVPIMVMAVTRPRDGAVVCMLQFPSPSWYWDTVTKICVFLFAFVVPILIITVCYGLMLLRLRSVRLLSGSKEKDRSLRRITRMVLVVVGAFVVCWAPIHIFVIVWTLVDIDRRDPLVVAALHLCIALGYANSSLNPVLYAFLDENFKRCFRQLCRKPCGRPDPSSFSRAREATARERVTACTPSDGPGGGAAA

Structure (SMILES)	EC50 (human dOR) [nM]	IC50 (human mOR) [nM]	IC50 (kOR (OPRK1)) [nM]
Cc1cc(C(N)=O)cc(C)c1C[C@@H](CNC(=O)C[C@@H](c1ccccc1)C1CC1)N(C)C [Compound 11, 4-((S)-3-((R)-3-cyclopropyl-3-phenylpropanamido)-2-(dimethylamino)propyl)-3,5-dimethylbenzamide]	> 3000	< 300	< 300
CN(C)[C@H](CNC(=O)C[C@H](c1ccccc1)C1(C(F)(F)F)CC1)Cc1ccc(C(N)=O)cc1 [Compound 89, 4-[(2S)-2-(dimethylamino)-3-[(3R)-3-phenyl-3-[1-(trifluoromethyl)cyclopropyl]propanamido]propyl]benzamide]	< 300	< 300	< 300
CNC(=O)c1ccc(C[C@@H](CNC(=O)C[C@H](c2cc(F)cc(F)c2)C2(C(F)(F)F)CC2)N(C)C)c(C)c1 [Compound 136, 4-((S)-3-((R)-3-(3,5-difluorophenyl)-3-(1-(trifluoromethyl)cyclopropyl)propanamido)-2-(dimethylamino)propyl)-N,3-dimethylbenzamide]	300 to 3000	< 300	< 300
CNC(=O)c1ccc(C[C@@H](CNC(=O)C[C@H](c2ccccc2)C2(C(F)(F)F)CC2)N(C)C)c(C)c1 [Compound 143, 4-((S)-2-(dimethylamino)-3-((R)-3-phenyl-3-(1-(trifluoromethyl)cyclopropyl)propanamido)propyl)-N,3-dimethylbenzamide]	> 3000	< 300	< 300
CN(C)[C@H](CNC(=O)C[C@@H](c1ccccc1)C1CC1)Cc1ccc(O)cc1 [Compound 318, (R)-3-cyclopropyl-N-((S)-2-(dimethylamino)-3-(4-hydroxyphenyl)propyl)-3-phenylpropanamide]	< 300	< 300	< 300
CN(C)[C@H](CNC(=O)C[C@H](c1ccccc1)C1(C(F)(F)F)CC1)Cc1ccc(C(N)=O)cc1Cl [Compound 39, 3-chloro-4-[(2S)-2-(dimethylamino)-3-[(3R)-3-phenyl-3-[1-(trifluoromethyl)cyclopropyl]propanamido]propyl]benzamide]	> 3000	< 300	< 300
